“And” between values parts separate entries of the source, which are not always exact repeats. Identical values can stand only once. Non-standard residues stand in square brackets, D forms with d. Residues, ends and D or L forms follow the SMILES beside them. dTrp(2-Me) = Cc1[nH]c2ccccc2c1C[C@@H](N)C(=O)O
Columns and labels:
[1] = test system: young-adult male Sprague-Dawley rats; experiment: Feeding behavior (food intake) of young-adult male rats; type: in vivo, rat (Sprague-Dawley)
Protocol: V) Assaying the Feeding Behavior (Food Intake) of Young-Adult Male Rats
The impact of compounds of the invention being GHS receptor analogue ligands on the feeding behaviour, i.e. food intake, of young-adult male rats was assayed.
In principle, assaying the feeding behavior (food intake) of young-adult male rats was performed according to Torsello et al. (Eur. J. Pharmacol. 1998, 360: 123-129).
For the assay, young-adult male Sprague-Dawley rats (Charles River, Calco, Italy), weighing 200-250 g, were used.
Rats had 1 week of acclimation in individual home cages, and animal room conditions (22±2° C., 65% humidity, artificial light from 08.00 to 20.00 h). The following week, they were daily trained to mimic the experimental procedure. Rats maintained free access to dry pellets and tap water throughout the whole experimental period. At the end of training, rats were administered (around 10.00-11.00 a.m.) subcutaneously with the compounds to be tested (160 μg/kg body weight) and/or hexarelin (80 μg/kg body weight) and/or solvent [DMSO (0.4% of total volume), distilled water (4% of total volume), brought to the final volume with physiological saline].
Hexarelin was used to study the effects of the compounds to be tested on stimulated feeding behavior. Immediately after the injections, the animals were returned to their home cages, which contained a known amount of standard rat chow and ad libitum water. Every hour for the following 6 hours, the remaining food was carefully collected and weighed to the nearest 0.1 g. Food intake was normalized for the body weight of the rats and expressed as grams of food eaten per 100 g body weight of rats.
In the following table 4 results obtained for selected compounds of the invention are presented.

[2] = test system: GH concentration in the plasma of male rat pups; experiment: In vivo GH concentration in the plasma of male rat pups; design: species or system rat (Sprague-Dawley); settings: rat pup plasma
Protocol: IV) Assaying In Vivo GH Concentration in the Plasma of Male Rat Pups
GH plasma concentrations of male rat pubs were assayed to characterize the modulation effect (antagonistic or agonistic) of the compounds of the invention being GHS receptor analogue ligands.
In principle, assaying in vivo GH concentration in rat plasma was performed according to Torsello et al. (Eur. J. Pharmacol. 1998, 360: 123-129).
Male Sprague-Dawley rat pups (Charles River, Calco, Italy) were separated on postnatal day seven from their mothers and randomly redistributed to the dams, so that each one nurtured ten to twelve pups. On postnatal day ten, the pups were again separated from their mothers.
The compounds to be tested were dissolved in solvent [DMSO (0.4% of total volume), distilled water (4% of total volume), brought to the final volume with physiological saline].
One hour after separation from their mothers, the pups were given isovolumetric amounts of the compounds to be tested (160 μg/kg body weight s.c.) at time −10 min and then administered with hexarelin (80 μg/kg body weight s.c.) or solvent at time 0 min before being killed 15 min later by decapitation. Trunk blood was collected, immediately centrifuged and plasma samples were stored at −20° C. until assayed for the determination of GH concentrations.
Plasma GH concentrations were measured using a rat growth hormone enzyme immunoassay kit (SPIbio, France, cat. no. 589601) according to the manufacturer's instructions. Values are expressed in terms of NIDDK rat-GH-RP2 standard (potency 2 IU/mg) as ng/mL of plasma
The limit of detection calculated as the concentration producing 15% displacement of initial tracer was 0.5 ng/ml; intra-assay and inter-assay coefficient of variation are 4% (n=24) and 14% (n=9).
In the following table 3 results obtained for selected compounds of the invention are presented.

human GHS-R 1a = target: T1, human GHS-R 1a (Homo sapiens, UniProt Q92847); experiment: GHS-R 1a receptor-ligand binding assay (membrane preparations from transfected LLC PK-1 cells); settings: displacement of 125I-His9-ghrelin (60 pM); membranes of LLC PK-1 cells transfected with human GHS-R 1a; mean of at least two independent experiments in triplicates
T1 construct: expressed in transfected cells; host or cells: LLC PK-1 porcine renal epithelial cells (ECACC No. 86121112), isolated plasma membranes
Summary of the method: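 Membranes from LLC PK-1 cells expressing human GHS-R 1a incubated 60 min at 25 °C in 50 mM Tris pH 7.3, 5 mM MgCl2, 2.5 mM EDTA, bacitracin with 60 pM 125I-ghrelin and competitor; nonspecific binding with 10^-6 M ghrelin; filtration read-out.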

[3] = compound 160 μg/kg s.c. + hexarelin 80 μg/kg s.c.
[4] = compound alone, 160 μg/kg body weight s.c.
[5] = compound 160 μg/kg s.c. at -10 min + hexarelin 80 μg/kg s.c. at 0 min, killed 15 min later
[6] = compound alone 160 μg/kg body weight s.c. at -10 min, solvent at 0 min, killed 15 min later

T1 sequence (Q92847 whole entry): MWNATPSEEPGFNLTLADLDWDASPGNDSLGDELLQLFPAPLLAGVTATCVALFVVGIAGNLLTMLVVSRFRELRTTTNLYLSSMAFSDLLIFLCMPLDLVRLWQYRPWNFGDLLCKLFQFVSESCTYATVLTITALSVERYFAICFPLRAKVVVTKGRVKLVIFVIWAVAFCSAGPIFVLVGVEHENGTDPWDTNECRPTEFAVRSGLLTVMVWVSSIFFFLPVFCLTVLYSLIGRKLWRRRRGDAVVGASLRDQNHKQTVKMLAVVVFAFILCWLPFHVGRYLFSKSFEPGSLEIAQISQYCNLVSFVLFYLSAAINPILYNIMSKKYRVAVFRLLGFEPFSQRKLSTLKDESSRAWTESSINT

What does the source list for COc1ccc(Cn2c(CCc3c[nH]c4ccccc34)nnc2[C@@H](Cc2c[nH]c3ccccc23)NC(=O)C2CNCCN2)cc1 (stereo partly shown) [compound 81]?
Cumulative food intake (after 2 hours) [1, 3]: 0.024 ± 0.0101 g food/100 g body weight; Cumulative food intake (after 6 hours) [1, 3]: 0.116 ± 0.077 g food/100 g body weight; Cumulative food intake (after 2 hours) [1, 4]: 0.017 ± 0.004 g food/100 g body weight; Cumulative food intake (after 6 hours) [1, 4]: 0.03 ± 0 g food/100 g body weight; GH concentration [2, 5]: 216.575 ± 19.734 ng/mL; GH concentration [2, 6]: 18.634 ± 2.933 ng/mL; IC50 (human GHS-R 1a): 18 nM

For COc1ccc(Cn2c(CCc3ccccc3)nnc2[C@@H](Cc2c[nH]c3ccccc23)NC(=O)[C@H]2CCCN2)cc1 [compound 47, (R)—N—((R)-1-(4-(4-methoxybenzyl)-5-phenethyl-4H-1,2,4-triazol-3-yl)-2-(1H-indol-3-yl)ethyl)pyrrolidine-2-carboxamide], which “Cumulative food intake (after 2 hours)” value [1, 3] is on record?
Its value is 0.35 ± 0.201 g food/100 g body weight.

And the “Cumulative food intake (after 6 hours)” value [1, 3]?
The value was 0.47 ± 0.1943 g food/100 g body weight.

What about the “Cumulative food intake (after 2 hours)” value [1, 4] of the same molecule?
The value was 0.006 ± 0.002 g food/100 g body weight.

What about the “Cumulative food intake (after 6 hours)” value [1, 4] of the same molecule?
Its value is 0.02 ± 0 g food/100 g body weight.

What about the GH concentration [2, 5] of the same molecule?
Its GH concentration is 160.857 ± 13.52 ng/mL.

What about the GH concentration [2, 6] of the same molecule?
The GH concentration was 5.658 ± 1.192 ng/mL.

What about the IC50 (human GHS-R 1a) of the same molecule?
The IC50 was 27 nM.

COc1ccc(Cn2c(CCc3c[nH]c4ccccc34)nnc2[C@@H](Cc2c[nH]c3ccccc23)NC(=O)C2CCNCC2)c(OC)c1 [compound 31, (R)—N-(1-(5-(2-(1H-indol-3-yl)ethyl)-4-(2,4-dimethoxybenzyl)-4H-1,2,4-triazol-3-yl)-2-(1H-indol-3-yl)ethyl)piperidine-4-carboxamide] was tested. Which GH concentration [2, 5] did it give?
Its GH concentration is 103.528 ± 14.094 ng/mL.

And the GH concentration [2, 6]?
The GH concentration was 119.937 ± 33.054 ng/mL.

What about the IC50 (human GHS-R 1a) of the same molecule?
Its IC50 is 0.5 nM.

What does the source list for COc1ccc(Cn2c(CCc3ccccc3)nnc2[C@@H](Cc2c[nH]c3ccccc23)NC(=O)CN)cc1 [compound 50, (R)—N-(1-(4-(4-methoxybenzyl)-5-phenethyl-4H-1,2,4-triazol-3-yl)-2-(1H-indol-3-yl)ethyl)-2-aminoacetamide]?
Cumulative food intake (after 2 hours) [1, 3]: 0.003 ± 0.002 g food/100 g body weight; Cumulative food intake (after 6 hours) [1, 3]: 0.017 ± 0.001 g food/100 g body weight; Cumulative food intake (after 2 hours) [1, 4]: 0.012 ± 0.008 g food/100 g body weight; Cumulative food intake (after 6 hours) [1, 4]: 0.039 ± 0.011 g food/100 g body weight; GH concentration [2, 5]: 164.459 ± 4.443 ng/mL; GH concentration [2, 6]: 9.852 ± 1.040 ng/mL

With COc1ccc(Cn2c(CCCc3ccccc3)nnc2[C@@H](Cc2c[nH]c3ccccc23)NC(=O)C(C)(C)N)cc1 [compound 22, (R)—N-(1-(4-(4-methoxybenzyl)-5-(3-phenylpropyl)-4H-1,2,4-triazol-3-yl)-2-(1H-indol-3-yl)ethyl)-2-amino-2-methylpropanamide] as the molecule, how does the “Cumulative food intake (after 2 hours)” value [1, 3] read?
Its value is 0.67 ± 0.12 g food/100 g body weight.

What about the “Cumulative food intake (after 6 hours)” value [1, 3] of the same molecule?
The value was 0.86 ± 0.18 g food/100 g body weight.

What about the “Cumulative food intake (after 2 hours)” value [1, 4] of the same molecule?
The value was 0.01 g food/100 g body weight.

What about the “Cumulative food intake (after 6 hours)” value [1, 4] of the same molecule?
The value was 0.44 ± 0.2 g food/100 g body weight.

And the GH concentration [2, 5]?
The GH concentration was 239.91 ± 19.75 ng/mL.

And the GH concentration [2, 6]?
Its GH concentration is 4.88 ± 0.33 ng/mL.

What about the IC50 (human GHS-R 1a) of the same molecule?
The IC50 was 12 nM.

Which GH concentration [2, 5] does the source give for COc1ccc(Cn2c(CCc3ccccc3)nnc2[C@@H](Cc2c[nH]c3ccccc23)NC(=O)[C@@H]2CCCCN2)cc1 [compound 48, (S)—N—((R)-1-(4-(4-methoxybenzyl)-5-phenethyl-4H-1,2,4-triazol-3-yl)-2-(1H-indol-3-yl)ethyl)piperidine-2-carboxamide] here?
Its GH concentration is 145.946 ± 12.159 ng/mL.

What about the GH concentration [2, 6] of the same molecule?
The GH concentration was 6.096 ± 2.091 ng/mL.

Which results are given for COc1ccc(Cn2c(CCc3ccccc3)nnc2[C@@H](Cc2c[nH]c3ccccc23)NC(=O)C(C)(C)N)cc1 [compound 20, (R)—N-(1-(4-(4-methoxybenzyl)-5-phenethyl-4H-1,2,4-triazol-3-yl)-2-(1H-indol-3-yl)ethyl)-2-amino-2-methylpropanamide]?
Cumulative food intake (after 2 hours) [1, 3]: 0.53 ± 0.21 g food/100 g body weight; Cumulative food intake (after 6 hours) [1, 3]: 0.63 ± 0.19 g food/100 g body weight; Cumulative food intake (after 2 hours) [1, 4]: 0.01 g food/100 g body weight; Cumulative food intake (after 6 hours) [1, 4]: 0.2 ± 0.19 g food/100 g body weight; GH concentration [2, 5]: 220.51 ± 15.52 ng/mL; GH concentration [2, 6]: 5.27 ± 0.59 ng/mL; IC50 (human GHS-R 1a): 14 nM

Which results are given for COc1ccc(Cn2c(CCc3c[nH]c4ccccc34)nnc2[C@@H](Cc2c[nH]c3ccccc23)NC(=O)C(C)(C)N)c(OC)c1 [compound 1, (R)—N-(1-(5-(2-(1H-indol-3-yl)ethyl)-4-(2,4-dimethoxybenzyl)-4H-1,2,4-triazol-3-yl)-2-(1H-indol-3-yl)ethyl)-2-amino-2-methylpropanamide]?
Cumulative food intake (after 2 hours) [1, 3]: 0.06 ± 0.02 g food/100 g body weight; Cumulative food intake (after 6 hours) [1, 3]: 0.33 ± 0.21 g food/100 g body weight; Cumulative food intake (after 2 hours) [1, 4]: 0.02 ± 0.002 g food/100 g body weight; Cumulative food intake (after 6 hours) [1, 4]: 0.06 ± 0.03 g food/100 g body weight; GH concentration [2, 5]: 80.22 ± 18.66 ng/mL; IC50 (human GHS-R 1a): 160 nM

For COc1ccc(Cn2c(CCc3c[nH]c4ccccc34)nnc2[C@H](N)Cc2c[nH]c3ccccc23)c(OC)c1 [compound 74, (R)-1-(5-(2-(1H-indol-3-yl)ethyl)-4-(2,4-dimethoxybenzyl)-4H-1,2,4-triazol-3-yl)-2-(1H-indol-3-yl)ethanamine], which GH concentration [2, 5] is on record?
Its GH concentration is 194.564 ± 7.658 ng/mL.

What about the GH concentration [2, 6] of the same molecule?
The GH concentration was 10.571 ± 0.791 ng/mL.

With Cc1[nH]c2ccccc2c1C[C@@H](NC(=O)[C@@H](N)Cc1cnc[nH]1)C(=O)N[C@@H](C)C(=O)N[C@@H](Cc1c[nH]c2ccccc12)C(=O)N[C@H](Cc1ccccc1)C(=O)N[C@@H](CCCCN)C(N)=O [hexarelin, Hexarelin, reference compound] (H-H[dTrp(2-Me)]AW[dF]K-NH2) as the molecule, how does the GH concentration ([2]; hexarelin alone 80 μg/kg body weight s.c.) read?
The GH concentration was 170.101 ± 13.226 ng/mL and 253.820 ± 12.268 ng/mL and 162.839 ± 21.095 ng/mL.

For CC(C)(N)C(=O)N[C@H](Cc1c[nH]c2ccccc12)c1nnc(Cc2ccccc2)n1Cc1ccc(F)cc1 [compound 30, (R)—N-(1-(4-(4-fluorobenzyl)-5-benzyl-4H-1,2,4-triazol-3-yl)-2-(1H-indol-3-yl)ethyl)-2-amino-2-methylpropanamide], which “Cumulative food intake (after 2 hours)” value [1, 3] is on record?
The value was 1.350 ± 0.177 g food/100 g body weight.

What about the “Cumulative food intake (after 6 hours)” value [1, 3] of the same molecule?
The value was 1.449 ± 0.213 g food/100 g body weight.

What about the “Cumulative food intake (after 2 hours)” value [1, 4] of the same molecule?
The value was 0.264 ± 0.244 g food/100 g body weight.

And the “Cumulative food intake (after 6 hours)” value [1, 4]?
Its value is 0.277 ± 0.246 g food/100 g body weight.

What about the IC50 (human GHS-R 1a) of the same molecule?
The IC50 was 171 nM.

With CC(C)(N)C(=O)N[C@H](Cc1c[nH]c2ccccc12)c1nnc(Cc2ccccc2)n1Cc1ccccn1 [compound 39, (R)—N-(1-(5-benzyl-4-(pyridin-2-ylmethyl)-4H-1,2,4-triazol-3-yl)-2-(1H-indol-3-yl)ethyl)-2-amino-2-methylpropanamide] as the molecule, how does the GH concentration [2, 5] read?
The GH concentration was 82.481 ± 11.530 ng/mL and 82.481 ± 11.53 ng/mL.

And the GH concentration [2, 6]?
The GH concentration was 5.509 ± 1.950 ng/mL and 5.509 ± 1.95 ng/mL.
